In PubChem BioAssay (NCI):
Values joined by “and” are separate entries in the source; they are usually repeats but may differ in a detail not shown here. Equal values may be shown once.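 Dose response: 5 concentrations. Exposure: 48 h. Format: 96-well plates. Endpoint: linear interpolation; highest concentration if not reached. The concentration for 50% growth inhibition is given as GI50. TGI: total growth inhibition.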

Tests used:
Experiment in all cases: NCI tumour cell line growth inhibition, 48 h
SK-MEL-5 melanoma = test system: SK-MEL-5 melanoma
HCT-116 colon = test system: HCT-116 colon
OVCAR-3 ovarian = test system: OVCAR-3 ovarian
HCC-2998 colon = test system: HCC-2998 colon
A498 renal = test system: A498 renal
SF-295 CNS = test system: SF-295 CNS
PC-3 prostate = test system: PC-3 prostate
SN12C renal = test system: SN12C renal
OVCAR-5 ovarian = test system: OVCAR-5 ovarian
NCI-H226 lung = test system: NCI-H226 lung

| SMILES | GI50 (SK-MEL-5 melanoma) | TGI (SK-MEL-5 melanoma) | GI50 (HCT-116 colon) | TGI (HCT-116 colon) | GI50 (OVCAR-3 ovarian) | TGI (OVCAR-3 ovarian) | GI50 (HCC-2998 colon) | TGI (HCC-2998 colon) | GI50 (A498 renal) | TGI (A498 renal) | GI50 (SF-295 CNS) | TGI (SF-295 CNS) | GI50 (PC-3 prostate) | TGI (PC-3 prostate) | GI50 (SN12C renal) | TGI (SN12C renal) | GI50 (OVCAR-5 ovarian) | TGI (OVCAR-5 ovarian) | GI50 (NCI-H226 lung) | TGI (NCI-H226 lung) |
| --- | --- | --- | --- | --- | --- | --- | --- | --- | --- | --- | --- | --- | --- | --- | --- | --- | --- | --- | --- | --- |
| COc1cc2nnn3c4ncccc4c(N=O)c3c2cc1OC | 14.6 µM | 34 µM | 0.118 µM | > 100 µM | 0.722 µM | > 100 µM | 2.28 µM | 10.8 µM | 15.1 µM | 35.3 µM | 4.99 µM | 29.4 µM | 5.62 µM | > 100 µM | 2.54 µM | > 100 µM | 5.83 µM | > 64.6 µM | 6.91 µM | 44.4 µM |
| CC[C@@]1(O)C(=O)OCc2c1cc1n(c2=O)Cc2cc3c(N)cccc3nc2-1 | 0.0214 µM | 0.0806 µM | 0.00979 µM and 0.0559 µM | 0.737 µM |  | 1.42 µM | 0.0239 µM | 1.39 µM | 0.0896 µM | 0.611 µM | 0.00874 µM | 2.37 µM |  | > 100 µM | 0.00812 µM | > 23.3 µM | 0.0763 µM | 1.1 µM | 0.0179 µM | 0.105 µM |
| C=CC(=O)Nc1cccc(Nc2nc(Nc3ccc(OCCOC(F)F)cc3)ncc2F)c1 | 3.74 µM | 15.1 µM | 2.69 µM | 20 µM | 2.32 µM | 14.1 µM | 12.6 µM | 47.6 µM | 0.408 µM | 1.83 µM | 6.04 µM | 83.4 µM | 4.01 µM | 27.1 µM | 2.54 µM | 16.2 µM | 4.12 µM | > 100 µM | 0.52 µM | 11.2 µM |
| Cc1ccc(/C=C2\CNC/C(=C\c3ccc(C)cc3)C2=O)cc1 | 2.1 µM | 4.1 µM and 6.03 µM | 0.202 µM | 0.382 µM and 1.93 µM | 1.27 µM |  | 1.42 µM | 2.77 µM and 3.07 µM | 1.63 µM | 3.36 µM and 3.56 µM |  | > 49.2 µM |  | 13.2 µM | 1.77 µM | 3.24 µM and 6.25 µM | 1.89 µM | 3.56 µM and 33.9 µM |  | 4.85 µM and 4.96 µM |
| CCC(=O)c1cc([N+](=O)[O-])c(Br)s1 | 16.5 µM | 30.4 µM | 1.68 µM | 3.14 µM | 1.91 µM | 3.32 µM | 15.2 µM | 31 µM | 17.3 µM | 31.3 µM | 15.5 µM | 31.6 µM | 10.3 µM | 24.4 µM | 8.3 µM | 24.1 µM | 16.6 µM | 32.1 µM | 18.7 µM | 35.6 µM |
| NC(=O)c1cc(I)ccc1NC(=O)COc1ccccc1 | 0.533 µM | > 100 µM | 0.499 µM | 16.1 µM | 0.336 µM | 1.35 µM | 2.5 µM | > 100 µM | 1.27 µM | 7.26 µM | 0.256 µM | 3.39 µM | 0.471 µM | > 100 µM | 2.3 µM | > 100 µM | 2.24 µM | > 100 µM | 3.48 µM | > 100 µM |
| COc1cc2cc(Oc3ccc(NC(=O)c4cccc5c4OCCO5)cc3)c(C)nc2cc1OC | 2.92 µM | > 100 µM | 3.42 µM | > 100 µM | 17.1 µM | > 100 µM | 5.5 µM | > 100 µM | 2.06 µM | 68.4 µM | 2.91 µM | > 100 µM | 2.49 µM | 16.2 µM | 8.4 µM | > 100 µM | 10.8 µM | > 100 µM | 3.21 µM | 21.2 µM |
| COc1ccc2[nH]c(-c3ccccc3)cc2c1 | 86.6 µM | > 100 µM | > 100 µM | > 100 µM | > 100 µM | > 100 µM | > 100 µM | > 100 µM | 20.8 µM | > 100 µM | 84.7 µM | > 100 µM | > 100 µM | > 100 µM | > 100 µM | > 100 µM | > 100 µM | > 100 µM | > 100 µM | > 100 µM |
| c1ccc(CC(NCCNC(Cc2ccccc2)c2ccccc2)c2ccccc2)cc1 (centres undefined) | 0.271 µM | 0.779 µM | 0.2 µM | 0.486 µM | 0.398 µM | 1.46 µM | 0.393 µM | 1.55 µM | 1.25 µM | 2.66 µM | 0.372 µM | 1.56 µM | 0.409 µM | 1.78 µM | 0.517 µM | 1.96 µM | 1.24 µM | 3.57 µM | 1.12 µM | 2.79 µM |
| CCCn1cnc2c(SCc3ccccc3)nc(N)nc21 | 21.2 µM | > 100 µM | 63 µM | > 100 µM | > 100 µM | > 100 µM | > 100 µM | > 100 µM | 19.7 µM | 75.2 µM | 32.1 µM | > 100 µM | 67.9 µM | > 100 µM | > 100 µM | > 100 µM | > 100 µM | > 100 µM | 30.5 µM | > 100 µM |
| O=C(Nc1cc(S(=O)(=O)c2ccc(Cl)cc2)ccc1Cl)c1cc(I)cc(I)c1O | 14.9 µM | 28.3 µM | 14.3 µM | 27.7 µM | 17 µM | 34.2 µM | 13.2 µM | 27.2 µM | 15.3 µM | 31.6 µM | 15.1 µM | 32 µM | 14.4 µM | 28.6 µM | 16.1 µM | 34.8 µM | 18.3 µM | 38.2 µM | 26.8 µM | 69.1 µM |
| CC1(C)C2CCC13C(=O)C1OC3(C2)C2C(=O)c3c(O)cccc3C(=O)C12 (centres undefined) | 0.46 µM | 1.64 µM | 1.09 µM | 2.3 µM | 0.18 µM | 0.648 µM | 1.94 µM | 4.16 µM | 1.89 µM | 3.49 µM | 0.156 µM | 0.442 µM | 0.835 µM | 3.09 µM | 0.711 µM | 1.84 µM | 4.25 µM | 13.7 µM | 7.68 µM | 23.8 µM |
| O=c1[nH]c2cc(Cl)c(Cl)cc2n2cc3ccccc3c12 | 19.9 µM | 41.7 µM | 21 µM | 35.3 µM | 18.4 µM | 32.4 µM | 0.813 µM | 18.6 µM | 15.8 µM | 29.9 µM | 16.2 µM | 29.9 µM | 17.3 µM | 31.1 µM | 15.7 µM | 29.4 µM | 17.1 µM | 30.8 µM | 18.6 µM | 35.9 µM |
